Assay results reported in the supplement of paper PMC10307832.

What was measured:
Experiment in all cases: relative viability (nuclei count vs DMSO), 5 days (fraction); higher = more cells survive
NCI-H23 = system: NCI-H23
Procedure, shortened: (§1)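 Lung cancer cell lines in 1536-well plates were dosed by pin tool the day after seeding, either with one drug alone or with a fixed anchor-drug dose plus five library-drug doses (not always all listed) in √10 steps. After 5 days, cells were fixed and their nuclei stained in one step (final 0.05% Triton X-100, 1% formaldehyde, 1 ug/ml Hoechst), then counted on 4× images. Relative viability is the nuclei count in treated wells divided by that in vehicle wells. Values are medians of duplicate plates.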

NCI-H596 = system: NCI-H596
Procedure, shortened: as §1

NCI-H1648 = system: NCI-H1648
Procedure, shortened: as §1

NCI-H322M = system: NCI-H322M
Procedure, shortened: as §1

NCI-H1993 = system: NCI-H1993
Procedure, shortened: as §1

NCI-H1703 = system: NCI-H1703
Procedure, shortened: as §1

NCI-H1355 = system: NCI-H1355
Procedure, shortened: as §1

LCLC-97TM1 = system: LCLC-97TM1
Procedure, shortened: as §1

UMC-11 = system: UMC-11
Procedure, shortened: as §1

A549 = system: A549
Procedure, shortened: as §1

IA-LM = system: IA-LM
Procedure, shortened: as §1

O=c1cc(-c2cccc3c2Sc2ccccc2S3)oc(N2CCOCC2)c1 + NC(=O)Nc1cc(-c2cccc(F)c2)sc1C(=O)N[C@H]1CCCNC1 [AZD7762] (partner 0.2 µM)
relative viability (NCI-H23; first compound 0.08 µM): 0.205
relative viability (NCI-H23; first compound 0.253 µM): 0.251
relative viability (NCI-H23; first compound 0.8 µM): 0.349
relative viability (NCI-H23; first compound 2.53 µM): 0.203
relative viability (NCI-H23; first compound 8 µM): 0.229
relative viability (NCI-H596; first compound 0.08 µM): 1.04
relative viability (NCI-H596; first compound 0.253 µM): 1.1
relative viability (NCI-H596; first compound 0.8 µM): 1.15
relative viability (NCI-H596; first compound 2.53 µM): 1
relative viability (NCI-H596; first compound 8 µM): 1.22
relative viability (NCI-H1648; first compound 0.253 µM): 0.694
relative viability (NCI-H1648; first compound 0.8 µM): 0.734
relative viability (NCI-H1648; first compound 8 µM): 0.69
relative viability (NCI-H322M; first compound 0.08 µM): 0.665
relative viability (NCI-H322M; first compound 0.253 µM): 0.537
relative viability (NCI-H322M; first compound 0.8 µM): 0.51
relative viability (NCI-H322M; first compound 2.53 µM): 0.429
relative viability (NCI-H322M; first compound 8 µM): 0.534
relative viability (NCI-H1993; first compound 0.08 µM): 0.707
relative viability (NCI-H1993; first compound 0.253 µM): 0.763
relative viability (NCI-H1993; first compound 0.8 µM): 0.556
relative viability (NCI-H1993; first compound 2.53 µM): 0.749
relative viability (NCI-H1993; first compound 8 µM): 0.728
relative viability (NCI-H1703; first compound 0.253 µM): 0.13
relative viability (NCI-H1703; first compound 2.53 µM): 0.098
relative viability (NCI-H1703; first compound 8 µM): 0.116
relative viability (NCI-H1355; first compound 0.08 µM): 0.703
relative viability (NCI-H1355; first compound 0.253 µM): 0.915
relative viability (NCI-H1355; first compound 0.8 µM): 0.743
relative viability (NCI-H1355; first compound 2.53 µM): 0.554
relative viability (NCI-H1355; first compound 8 µM): 0.756
relative viability (LCLC-97TM1; first compound 0.08 µM): 0.303
relative viability (LCLC-97TM1; first compound 0.253 µM): 0.191
relative viability (LCLC-97TM1; first compound 0.8 µM): 0.265
relative viability (LCLC-97TM1; first compound 2.53 µM): 0.114
relative viability (LCLC-97TM1; first compound 8 µM): 0.345

O=c1cc(N2CCOCC2)oc2c(-c3cccc4c3sc3ccccc34)cccc12 + Nc1ncn([C@H]2C[C@H](O)[C@@H](CO)O2)c(=O)n1 [Decitabine] (partner 2 µM)
relative viability (UMC-11; first compound 0.01 µM): 0.587
relative viability (UMC-11; first compound 0.03162 µM): 0.562
relative viability (UMC-11; first compound 0.1 µM): 0.492
relative viability (UMC-11; first compound 0.3162 µM): 0.556
relative viability (UMC-11; first compound 1 µM): 0.687
relative viability (NCI-H23; first compound 0.01 µM): 0.288
relative viability (NCI-H23; first compound 0.03162 µM): 0.322
relative viability (NCI-H23; first compound 0.3162 µM): 0.326
relative viability (NCI-H23; first compound 1 µM): 0.307
relative viability (NCI-H596; first compound 0.01 µM): 0.974
relative viability (NCI-H596; first compound 0.03162 µM): 1.07
relative viability (NCI-H596; first compound 0.1 µM): 1.09
relative viability (NCI-H596; first compound 0.3162 µM): 1.03
relative viability (NCI-H596; first compound 1 µM): 1.05
relative viability (A549; first compound 0.01 µM): 0.26
relative viability (A549; first compound 0.03162 µM): 0.242
relative viability (A549; first compound 0.1 µM): 0.189
relative viability (A549; first compound 0.3162 µM): 0.246
relative viability (A549; first compound 1 µM): 0.288
relative viability (NCI-H1648; first compound 0.03162 µM): 0.594
relative viability (NCI-H1648; first compound 0.1 µM): 0.496
relative viability (NCI-H1648; first compound 0.3162 µM): 0.466
relative viability (NCI-H1648; first compound 1 µM): 0.458
relative viability (NCI-H322M; first compound 0.01 µM): 0.683
relative viability (NCI-H322M; first compound 0.03162 µM): 0.678
relative viability (NCI-H322M; first compound 0.3162 µM): 0.748
relative viability (NCI-H322M; first compound 1 µM): 0.751
relative viability (NCI-H1993; first compound 0.01 µM): 0.731
relative viability (NCI-H1993; first compound 0.03162 µM): 0.639
relative viability (NCI-H1993; first compound 0.1 µM): 0.569
relative viability (NCI-H1993; first compound 0.3162 µM): 0.575
relative viability (NCI-H1993; first compound 1 µM): 0.585
relative viability (NCI-H1355; first compound 0.01 µM): 0.377
relative viability (NCI-H1355; first compound 0.03162 µM): 0.339
relative viability (NCI-H1355; first compound 0.1 µM): 0.409
relative viability (NCI-H1355; first compound 0.3162 µM): 0.351
relative viability (NCI-H1355; first compound 1 µM): 0.352
relative viability (LCLC-97TM1; first compound 0.01 µM): 0.261
relative viability (LCLC-97TM1; first compound 0.03162 µM): 0.227
relative viability (LCLC-97TM1; first compound 0.1 µM): 0.227
relative viability (LCLC-97TM1; first compound 0.3162 µM): 0.252
relative viability (LCLC-97TM1; first compound 1 µM): 0.235

COc1nc(C)cnc1NS(=O)(=O)c1cccnc1-c1ccc(-c2nnco2)cc1 [Zibotentan] + O=C(CCCCCCC(=O)Nc1ccccc1)NO [Vorinostat] (partner 1 µM)
relative viability (UMC-11; first compound 0.08 µM): 0.408
relative viability (UMC-11; first compound 0.253 µM): 0.418
relative viability (UMC-11; first compound 0.8 µM): 0.384
relative viability (UMC-11; first compound 2.53 µM): 0.293
relative viability (NCI-H23; first compound 0.08 µM): 0.642
relative viability (NCI-H23; first compound 0.253 µM): 0.497
relative viability (NCI-H23; first compound 0.8 µM): 0.452
relative viability (NCI-H23; first compound 2.53 µM): 0.707
relative viability (NCI-H596; first compound 0.08 µM): 0.568
relative viability (NCI-H596; first compound 0.253 µM): 0.533
relative viability (NCI-H596; first compound 0.8 µM): 0.591
relative viability (NCI-H596; first compound 2.53 µM): 0.713
relative viability (IA-LM; first compound 0.08 µM): 0.881
relative viability (IA-LM; first compound 0.253 µM): 0.981
relative viability (IA-LM; first compound 0.8 µM): 0.9
relative viability (IA-LM; first compound 2.53 µM): 0.939
relative viability (NCI-H1648; first compound 0.08 µM): 0.574
relative viability (NCI-H1648; first compound 0.253 µM): 0.331
relative viability (NCI-H1648; first compound 0.8 µM): 0.54
relative viability (NCI-H1648; first compound 2.53 µM): 0.483
relative viability (NCI-H322M; first compound 0.08 µM): 1.03
relative viability (NCI-H322M; first compound 0.253 µM): 0.748
relative viability (NCI-H322M; first compound 0.8 µM): 0.895
relative viability (NCI-H322M; first compound 2.53 µM): 0.93
relative viability (NCI-H1993; first compound 0.08 µM): 1.05
relative viability (NCI-H1993; first compound 0.253 µM): 0.764
relative viability (NCI-H1993; first compound 0.8 µM): 0.826
relative viability (NCI-H1993; first compound 2.53 µM): 0.988
relative viability (NCI-H1355; first compound 0.08 µM): 0.682
relative viability (NCI-H1355; first compound 0.253 µM): 0.584
relative viability (NCI-H1355; first compound 0.8 µM): 0.657
relative viability (NCI-H1355; first compound 2.53 µM): 0.69
relative viability (LCLC-97TM1; first compound 0.08 µM): 0.822
relative viability (LCLC-97TM1; first compound 0.253 µM): 0.831
relative viability (LCLC-97TM1; first compound 0.8 µM): 0.697
relative viability (LCLC-97TM1; first compound 2.53 µM): 0.755

O=c1cc(N2CCOCC2)oc2c(-c3cccc4c3sc3ccccc34)cccc12 + O=C(CCCCCCC(=O)Nc1ccccc1)NO [Vorinostat] (partner 1 µM)
relative viability (UMC-11; first compound 0.01 µM): 0.386
relative viability (UMC-11; first compound 0.03162 µM): 0.368
relative viability (UMC-11; first compound 0.1 µM): 0.365
relative viability (UMC-11; first compound 0.3162 µM): 0.429
relative viability (UMC-11; first compound 1 µM): 0.311
relative viability (NCI-H23; first compound 0.01 µM): 0.555
relative viability (NCI-H23; first compound 0.03162 µM): 0.68
relative viability (NCI-H23; first compound 0.3162 µM): 0.795
relative viability (NCI-H23; first compound 1 µM): 0.537
relative viability (NCI-H596; first compound 0.01 µM): 0.564
relative viability (NCI-H596; first compound 0.03162 µM): 0.586
relative viability (NCI-H596; first compound 0.1 µM): 0.581
relative viability (NCI-H596; first compound 0.3162 µM): 0.626
relative viability (NCI-H596; first compound 1 µM): 0.573
relative viability (IA-LM; first compound 0.01 µM): 0.965
relative viability (IA-LM; first compound 0.03162 µM): 0.986
relative viability (IA-LM; first compound 0.1 µM): 0.907
relative viability (IA-LM; first compound 0.3162 µM): 0.901
relative viability (IA-LM; first compound 1 µM): 0.909
relative viability (NCI-H1648; first compound 0.03162 µM): 0.577
relative viability (NCI-H1648; first compound 0.1 µM): 0.438
relative viability (NCI-H1648; first compound 0.3162 µM): 0.419
relative viability (NCI-H1648; first compound 1 µM): 0.689
relative viability (NCI-H322M; first compound 0.01 µM): 0.826
relative viability (NCI-H322M; first compound 0.03162 µM): 0.92
relative viability (NCI-H322M; first compound 0.3162 µM): 0.871
relative viability (NCI-H322M; first compound 1 µM): 0.678
relative viability (NCI-H1993; first compound 0.01 µM): 1.21
relative viability (NCI-H1993; first compound 0.03162 µM): 0.769
relative viability (NCI-H1993; first compound 0.1 µM): 0.94
relative viability (NCI-H1993; first compound 0.3162 µM): 0.851
relative viability (NCI-H1993; first compound 1 µM): 0.697
relative viability (NCI-H1355; first compound 0.01 µM): 0.681
relative viability (NCI-H1355; first compound 0.03162 µM): 0.613
relative viability (NCI-H1355; first compound 0.1 µM): 0.598
relative viability (NCI-H1355; first compound 0.3162 µM): 0.663
relative viability (NCI-H1355; first compound 1 µM): 0.598
relative viability (LCLC-97TM1; first compound 0.01 µM): 0.699
relative viability (LCLC-97TM1; first compound 0.03162 µM): 0.725
relative viability (LCLC-97TM1; first compound 0.1 µM): 0.3
relative viability (LCLC-97TM1; first compound 0.3162 µM): 0.66
relative viability (LCLC-97TM1; first compound 1 µM): 0.784
